The values that follow come from patent US8557992B2, “Heterocyclic fused phenanthrolinone M1 receptor positive allosteric modulators” (Merck Sharp & Dohme Corp., priority 2010, dated 2013).

The target in the first experiment is T1, acetylcholine muscarinic M1 receptor (hM1) (Homo sapiens, UniProt P11229).
T1 construct: expressed in transfected cells; host or cells: CHOnfat (CHO cells, Geneticin selection)
T1 sequence (P11229 1-460): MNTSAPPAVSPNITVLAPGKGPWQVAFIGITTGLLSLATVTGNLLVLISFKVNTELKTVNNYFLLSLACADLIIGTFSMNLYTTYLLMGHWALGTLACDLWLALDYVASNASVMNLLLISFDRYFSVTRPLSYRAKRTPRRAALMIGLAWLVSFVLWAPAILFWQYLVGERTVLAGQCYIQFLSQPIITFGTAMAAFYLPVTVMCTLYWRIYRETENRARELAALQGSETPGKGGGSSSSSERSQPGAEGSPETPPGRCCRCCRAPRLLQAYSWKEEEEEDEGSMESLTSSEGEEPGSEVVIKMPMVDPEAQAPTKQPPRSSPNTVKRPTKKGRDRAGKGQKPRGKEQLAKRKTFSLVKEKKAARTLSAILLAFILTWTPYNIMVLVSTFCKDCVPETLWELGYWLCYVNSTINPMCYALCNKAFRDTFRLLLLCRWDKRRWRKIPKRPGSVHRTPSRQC
Description: FLIPR intracellular calcium assay for M1 positive allosteric modulator activity in CHOnfat/hM1 cells. Type of experiment: cell-based. The settings on record: 4 min preincubation, then acetylcholine EC20 (3 nM final), calculated from FLIPR values, read-out: IP Value (inflection point). On the procedure:
The assay studies the effect of one or several concentrations of test compounds on basal or acetylcholine-stimulated Ca^2+ levels using FLIPR.
Compounds are prepared and subjected to a preincubation period of 4 min. Thereafter, a single EC20 concentration of acetylcholine is added to each well (3 nM final). The intracellular Ca^2+ level of each sample is measured and compared to an acetylcholine control to determine any modulatory activity.
Cells: CHOnfat/hM1, hM2, hM3 or hM4 cells are plated 24 hr before the assay at a density of 18,000 cells/well (100 μL) in a 384 well plate. CHOnfat/hM1 and CHOnfat/hM3 Growth Medium: 90% DMEM (Hi Glucose); 10% HI FBS; 2 mM L-glutamine; 0.1 mM NEAA; Pen-Strep; and 1 mg/ml Geneticin, are added. For M2Gqi5CHOnfat and M4Gqi5CHOnfat cells, an additional 600 ug/ml hygromycin is added.
Equipment: 384 well plate, 120 μL addition plate; 96-well Whatman 2 ml Uniplate Incubator, 37° C., 5% CO2; Skatron EMBLA-384 Plate Washer; Multimek Pipetting System; Genesis Freedom 200 System; Mosquito System; Temo Nanolitre Pipetting System; and FLIPR^384 Fluorometric Imaging Plate Reader System are used.
Buffers. Assay Buffer: […] Balanced Salt Solution, with 20 mM Hepes, 2.5 mM Probenecid (Sigma P-8761) first dissolved in 1 N NaOH, 1% Bovine Serum Albumin (Sigma A-9647). Dye Loading Buffer: Assay Buffer plus 1% Fetal Bovine Serum and Fluo-4AM/Pluronic Acid Mixture. 2 mM Fluo-4AM ester stock in DMSO (Molecular Probes F-14202) Concentration of 2 μM in buffer for a final concentration of 1 μM in Assay. 20% Pluronic Acid Solution stock, with concentration of 0.04% in Buffer, 0.02% in Assay.
65 μL of 2 mM Fluo-4AM are mixed with 130 μL of 20% Pluronic Acid. The resulting solution and 650 μL FBS is added to the assay buffer for a total volume of 65 mL. Positive Controls: 4-Br-A23187: 10 mM in DMSO; final concentration 10 μM. Acetylcholine: 10 mM in water, working stock at both 20 μM and 30 μM in assay buffer, final concentration of 10 μM. This is used to check the maximum stimulation of the CHOK1/hM1 cells. 20 μM (2×) acetylcholine is added in the preincubation part of the assay, and the 30 μM (3×) stock is added in the second part. (EC20) Acetylcholine: 10 mM in water, working stock of 9 nM (3×), and final concentration in assay is 3 nM. This is used after the preincubation with test compounds. Addition of the EC20 Acetylcholine to each well with a test compound will ascertain any modulator activity. 24 wells contain 3 nM Acetylcholine alone as a control.
Screening Plate Compounds are titrated in 96-well plates (columns 2-11), 100% DMSO, started at a concentration of 15 mM (150× stock concentration), and 3-fold serial dilutions using Genesis Freedom200 System. Four 96-well plates are combined into a 384-well plate using Mosquito Nanolitre Pipetting System by transferring 1 μl of serial diluted compounds to each well, and 1 mM acetylcholine (100× stock concentration) were added as a control. Using Temo, 49 μl assay buffer is added to each well of the 384-well plate right before assay.
In a 96-well Whatman 2 ml Uniplate, 9 nM Acetylcholine (3×) is pipetted into wells corresponding to the screening compounds, and into control wells. The 30 μM acetylcholine control (3×) is added into control wells, and the 3× agonist plate is transferred into a 384 well plate.
Cells are washed three times with 100 μL of buffer, leaving 30 μL of buffer in each well. Using Multimek, 30 μL of Dye Loading Buffer is added into each well and incubated at 37° C., 5% CO2 for up to one hr.
After 60 min, the cells are washed three times with 100 μL of buffer, leaving 30 μL of buffer in each well. The cell plate, screening plate, and agonist addition plates are placed on the platform in the FLIPR and the door closed. A signal test to check background fluorescence and basal fluorescence signal is performed. Laser intensity is adjusted if necessary. […]
Consider `O=c1c2cc(Cc3ccc(Cl)nc3)c3cccnc3c2ccn1[C@H]1CCCC[C@@H]1O` [Example 1, 5-[(6-Chloropyridin-3-yl)methyl]-8-[(1S,2S)-2-hydroxycyclohexyl]-1,8-phenanthrolin-7(8H)-one], for which the EC50 was 23.5 nM. Turning to `COc1ccc(Cc2cc3c(=O)n([C@H]4CCOC[C@@H]4O)ccc3c3ncccc23)cn1` [Example 2, 1,5-Anhydro-2,3-dideoxy-3-{5-[(6-methoxypyridin-3-yl)methyl]-7-oxo-1,8-phenanthrolin-8(7H)-yl}-L-threo-pentitol], the EC50 was 20.6 nM. Still for that read-out and setting: the value for `CSc1ccc(Cc2cc3c(=O)n([C@H]4CCCC[C@@H]4O)ccc3c3ncccc23)cn1` [Example 3] was 15 nM. As for `O=c1c2cc(Cc3ccnc(OC(F)F)c3)c3cccnc3c2ccn1[C@H]1CCCC[C@@H]1O` [Example 4], the EC50 is 72 nM.

Consider `Cn1cc(-c2ccc(Cc3cc4c(=O)n([C@H]5CCCC[C@@H]5O)ccc4c4ncccc34)cn2)cn1` [Example 5], for which the EC50 is 1.7 nM. Same read-out and setting: the value for `O=c1c2cc(Cc3cccnc3)c3cccnc3c2ccn1[C@H]1CCCC[C@@H]1O` [Example 6, 8-[(1S,2S)-2-hydroxycyclohexyl]-5-(pyridin-3-ylmethyl)-1,8-phenanthrolin-7(8H)-one] was 28.6 nM.

Still in this experiment, the particulars now being: Table 1, unit inferred, potentiation of acetylcholine EC20 (3 nM final), read-out: H Pot.
`COc1ccc(Cc2cc3c(=O)n([C@H]4CCCC[C@@H]4O)ccc3c3ncccc23)cc1` [Example 7]: the EC50 stood at 21 nM. On to `COc1ccc(Cc2cc3c(=O)n([C@H]4CCOC[C@@H]4O)ccc3c3ncccc23)cc1` [Example 8], for which the EC50 amounted to 6.2 nM.

As for `COc1ccc(Cc2cc3c(=O)n([C@H]4CCCC[C@@H]4O)ccc3c3ncccc23)cn1` [Example 9], the EC50 was 22.5 nM. The same measure, in the same setting: the value for `COc1cc(Cc2cc3c(=O)n([C@H]4CCCC[C@@H]4O)ccc3c3ncccc23)ccn1` [Example 10] was 21.9 nM; that for `O=c1c2cc(Cc3ccnc(Cl)c3)c3cccnc3c2ccn1[C@H]1CCCC[C@@H]1O` [Example 11] was 20.5 nM. Still for that read-out and setting: with `Cc1cc(Cc2cc3c(=O)n([C@H]4CCCC[C@@H]4O)ccc3c3ncccc23)ccn1` [Example 12] the figure was 24 nM; with `O=c1c2cc(Cc3ccc(OC(F)F)nc3)c3cccnc3c2ccn1[C@H]1CCCC[C@@H]1O` [Example 13], 55 nM.

Consider `Cc1cc(Cc2cc3c(=O)n([C@H]4CCOC[C@@H]4O)ccc3c3ncccc23)ccn1` [Example 14], for which the EC50 stood at 16.8 nM.
